Six molecules from ChEMBL document CHEMBL3792363, “2,6-Bis(benzimidazol-2-yl)pyridine as a potent transmembrane anion transporter” (Bioorg Med Chem Lett, 2016) can be followed below.

Data set [1] in a line: Binding affinity to iodide anion assessed as association constant by spectrometric titration method.
The nature of data set [2]: Binding affinity to chloride anion assessed as association constant by spectrometric titration method.
The nature of data set [3]: Binding affinity to bromide anion assessed as association constant by spectrometric titration method.
Data set [4] is described as follows: Ionophoric activity assessed as induction of chloride influx into EYPC based liposomal membranes at 1 to 5% in presence of intravesicular NaNO3 by lucigenin based fluorescence assay. The settings on record: artificial membrane.
Data set [5] can be described thus: Ionophoric activity assessed as induction of pH discharge across EYPC based liposomal membranes at 1 to 5% by pyranine based fluorescence assay. Particulars: artificial membrane; call rule not given here.
The nature of data set [6]: Binding affinity to nitrate anion assessed as association constant by spectrometric titration method.
Data set [7] is described as follows: Ionophoric activity assessed as induction of pH discharge across POPC based liposomal membranes at 1 to 5% by pyranine based fluorescence assay. The settings on record: artificial membrane.
A short description of data set [8]: Ionophoric activity assessed as induction of chloride influx into EYPC based liposomal membranes at 1 to 5% in presence of intravesicular and extravesicular by lucigenin based fluorescence assay. The settings on record: artificial membrane.
The nature of data set [9]: Binding affinity to bromide anion assessed as association constant by spectrometric titration method relative to Me2bimpy.
Data set [10] can be described thus: Ionophoric activity assessed as induction of chloride influx into EYPC based liposomal membranes at 1 to 5% in presence of intravesicular Na2SO4 by lucigenin based fluorescence assay. Particulars: artificial membrane.
A short description of data set [11]: Binding affinity to iodide anion assessed as association constant by spectrometric titration method relative to Me2bimpy.
Data set [12] is described as follows: Ionophoric activity assessed as induction of pH discharge across EYPC based liposomal membranes using chloride salt of Cs+ ions at 3% by pyranine based fluorescence assay. The settings on record: artificial membrane.
Data set [13] in a line: Ionophoric activity assessed as induction of pH discharge across EYPC based liposomal membranes using chloride salt of Li+ ions at 3% by pyranine based fluorescence assay. Particulars: artificial membrane.
Data set [14] in a line: Binding affinity to chloride anion assessed as association constant by spectrometric titration method relative to Me2bimpy.
The nature of data set [15]: Ionophoric activity assessed as induction of pH discharge across POPC/cholesterol (30%) based liposomal membranes at 1 to 5% by pyranine based fluorescence assay. Particulars: artificial membrane.
A short description of data set [16]: Ionophoric activity assessed as induction of chloride influx into EYPC based liposomal membranes at 5% measured within 5 mins by lucigenin based fluorescence assay. The settings on record: artificial membrane.
Data set [17] in a line: Ionophoric activity assessed as induction of pH discharge across EYPC based liposomal membranes using chloride salt of Na+ ions at 3% by pyranine based fluorescence assay. The settings on record: artificial membrane.
Data set [18] is described as follows: Ionophoric activity assessed as induction of pH discharge across EYPC based liposomal membranes using chloride salt of Rb+ ions at 3% by pyranine based fluorescence assay. The settings on record: artificial membrane.
The nature of data set [19]: Binding affinity to nitrate anion assessed as association constant by spectrometric titration method relative to Me2bimpy.
The nature of data set [20]: Ionophoric activity assessed as induction of pH discharge across EYPC based liposomal membranes using chloride salt of K+ ions at 3% by pyranine based fluorescence assay. The settings on record: artificial membrane.
Data set [21] in a line: Ionophoric activity assessed as induction of pH discharge across EYPC based liposomal membranes at 5% by pyranine based fluorescence assay. Particulars: artificial membrane.
Data set [22] can be described thus: Ionophoric activity assessed as induction of chloride influx into EYPC based liposomal membranes at 15% measured within 5 mins by lucigenin based fluorescence assay. Particulars: artificial membrane.

For the molecule `Cn1c(-c2cccc(-c3nc4ccccc4n3C)n2)nc2ccccc21`, the Ka in data set [1] was 7.07 ×10² /M; in [2], 4 ×10² /M; in data set [3], 5.03 ×10² /M; in data set [6] it was 7.23 ×10² /M. The Activity entry in [4] and in data set [5] was “Not Active” throughout.

For `c1cc(-c2nc3ccccc3[nH]2)nc(-c2nc3ccccc3[nH]2)c1`, the Activity result in data set [7] is on record as “Not Active”; in data set [8], “Active”; in data set [10], “Active”; in data set [12], “Active”; in data set [13] it was “Active”; in [15] it was “Not Active”. Besides, the Activity in data set [16] was 35%; in [4], “Active”; in data set [5], “Active”; in [17], “Active”; in data set [18] it was “Active”; in data set [20], “Active”. For the same molecule, the fold change (FC) in data set [9] stood at 6; in data set [11] it was 2.2; in data set [14], 22; in [19], 6.8. For the same molecule, the Ka in data set [1] was determined as 1.57 ×10³ /M; in data set [2] it was 8.71 ×10³ /M; in data set [3], 3.04 ×10³ /M; in data set [6] it was 4.9 ×10³ /M.

As to `c1cc(-c2nc3ccccc3[nH]2)cc(-c2nc3ccccc3[nH]2)c1`, the result in data set [21] was Active.

For `CC(C)[C@H](C(=O)NCc1ccccc1)n1cc[n+](Cc2cccc(C[n+]3ccn([C@@H](C(=O)NCc4ccccc4)C(C)C)c3)c2)c1.O=S(=O)([N-]S(=O)(=O)C(F)(F)F)C(F)(F)F.O=S(=O)([N-]S(=O)(=O)C(F)(F)F)C(F)(F)F`, the Activity in data set [22] came to 35%.

For the molecule `CCCCCCCCCCCCNC(=O)[C@@H](C(C)C)n1cc[n+](Cc2cccc(C[n+]3ccn([C@@H](C(=O)NCCCCCCCCCCCC)C(C)C)c3)c2)c1.O=S(=O)([N-]S(=O)(=O)C(F)(F)F)C(F)(F)F.O=S(=O)([N-]S(=O)(=O)C(F)(F)F)C(F)(F)F`, in [22], the Activity is listed as 35%.

With `O=C(NCc1ccccc1)[C@@H](Cc1ccccc1)n1cc[n+](Cc2cccc(C[n+]3ccn([C@H](Cc4ccccc4)C(=O)NCc4ccccc4)c3)c2)c1.O=S(=O)([N-]S(=O)(=O)C(F)(F)F)C(F)(F)F.O=S(=O)([N-]S(=O)(=O)C(F)(F)F)C(F)(F)F`, the Activity in [22] was 35%.
